Entries after “also recorded” stand apart in the source; their conditions may differ. Structures can show the parent of a compound that is named as a salt. Where two headings read alike, the source gives them in different places.
How the values were obtained:
[1] = system: K562 erytiroleukemia cells; details: Yan et al., 1995; cited from earlier work
[2] = system: chronic myelogenous leukemia; details: previously untreated chronic myelogenous leukemia; cited from earlier work
[3] = system: MCF-7-AdrR cells; test: Metabolism of sphinganine, MCF-7-AdrR cells (TLC charring); assay type: cell-based; details: 5.0 μM sphinganine:BSA, FIG. 4
Experimental: (§1) FIG. 4. Metabolism of sphinganine by MCF-7-wt and MCF-7-AdrR cells. Cells, in 100×20 mm culture dishes, were incubated with 5.0 μM sphinganine:BSA (prepared at a 1:1 molar ratio) for the times indicated. Lipids were extracted, a 100 μg lipid aliquot of each sample was resolved by TLC in solvent system II, and the TLC was charred as described in Example I. The data shown are representative of two independent experiments which gave similar results.
(§2) Lipid Mass Analysis--Cell lipids were analyzed by TLC separation and charring of the chromatogram. Briefly, total cellular lipids were extracted by the method of Bligh and Dyer (1959), and equal aliquots (by weight) from each sample were spotted on TLC plates. The plates were developed using solvent system I or II (see below), air-dried for 1 h and sprayed using a 35% solution of sulfuric acid in water. The lipids were charred by heating in an oven at 180° C. for 30 min, and resulting black bands were visualized and photographed. Bands can be further quantitated by photodensitometric scanning.

[4] = system: MCF-7-wt cells; test: Metabolism of sphinganine, MCF-7-wt cells (TLC charring); assay type: cell-based; details: 5.0 μM sphinganine:BSA, FIG. 4
Experimental: as §1, §2

[5] = system: MCF-7-doxorubicin resistant cells; details: Sachs et al., 1995; cited from earlier work
[6] = system: PKC; details: Sachs et al., 1995; cited from earlier work
[7] = cited from earlier work
[8] = system: P388 and U937 cells; details: Bose et al., 1995; cited from earlier work
[9] = system: OVCAR-3 (MDR ovarian carcinoma); details: clinically relevant concentrations (Rogan et al., 1984); cited from earlier work
[10] = system: MCF-7-AdrR cells; test: Cell proliferation (MTS) assay: adriamycin toxicity and chemosensitization
From the text: FIG. 15A and FIG. 15B. […] FIG. 15B: Glycosylceramide levels in MDR Cells following drug treatment. […] In order to avoid differences in [^3 H]glycosylceramide values which account for cell death, the same amount of total radioactive lipid from each sample was applied to TLC separation.
FIG. 16A and FIG. 16B. […] FIG. 16A: Effect of PPMP on cellular glycosylceramide levels. […] [^3 H]Glycosylceramide was quantitated as described in the legend to FIG. 9.
Vehicle (acetone, ethanol) was always added to control (minus drug) wells. The cytotoxic activity of a drug was determined using the Promega CellTiter 96™ AQueous MTS cell proliferation assay kit. Each experimental point was performed in six replicates. MTS/PMS solution (20 μl/well) was aliquoted into all wells, and the cells were incubated for 2-3 h, or until an O.D. of 0.9-1.0 was obtained as a highest reading. Thereafter, absorbence at 490 nm was recorded using an ELISA plate reader (Molecular Devices, San Diego, Calif.).

[11] = system: glycosylceramide synthesis in MCF-7-AdrR cells; test: Glycosylceramide levels in MDR cells following drug treatment, [3H]serine 48 h; assay type: cell-based; details: read-out: diminution in glycosylceramide formation, adriamycin alone
[12] = system: certain animal tumors; details: in vivo; cited from earlier work
[13] = system: lymphomas, particularly Hodgkin's disease; details: cited from earlier work
[14] = in vivo; cited from earlier work

**Q.** With `Cc1cn([C@H]2C[C@H](N=[N+]=[N-])[C@@H](CO)O2)c(=O)[nH]c1=O` [3'-azidothymidine] as the compound, how does the “sphingoglycolipid metabolism (in words)” value [1] read?
**A.** altered sphingoglycolipid metabolism

**Q.** With `CS(=O)(=O)OCCCCOS(C)(=O)=O` [Busulfan, 1,4-butanediol dimethanesulfonate] as the compound, how does the hematologic remission [2] read?
**A.** Approximately 90 % of adults

**Q.** With `CCCCCCCCCCCCCCC[C@@H](O)[C@@H](N)CO` [sphinganine] as the compound, how does the “glycosylceramide (lipid-1 and -2) synthesis/mass on sphinganine supplement, MCF-7-AdrR (in words)” value [3] read?
**A.** accelerated synthesis; also recorded: strikingly more pronounced

**Q.** And the “synthesis of lipid X, MCF-7-wt (in words)” value [4]?
**A.** synthesis of lipid X increased

**Q.** Which results are given for `CCCCCCCCCCCCCCC[C@H](O)[C@@H](N)CO` [safingol]?
**A.** reversal of MDR (in words) [5]: reversal of MDR; inhibition of PKC activity (in words) [6]: inhibition of PKC activity

**Q.** With `COc1cccc2c1C(=O)c1c(O)c3c(c(O)c1C2=O)C[C@@](O)(C(C)=O)C[C@@H]3O[C@H]1C[C@H](N)[C@H](O)[C@H](C)O1` [daunorubicin, 5,12-Naphthacenedione, (8S-cis)-8-acetyl-10-[(3-amino-2,3,6-trideoxy-a-L-lyxo-hexanopyranosyl)oxy]-7,8,9,10-tetrahydro-6,8,11-trihydroxy-10-methoxy-, hydrochloride] as the compound, how does the distribution half-life ([7]; in vivo, iv) read?
**A.** 0.75 h

**Q.** What about the elimination half-life ([7]; in vivo, iv) of the same compound?
**A.** about 19 hr

**Q.** What about the “secreted into the bile” value ([7]; in vivo, iv) of the same compound?
**A.** ~40%

**Q.** What about the “absorption (in words)” value ([7]; in vivo, po) of the same compound?
**A.** poor

**Q.** And the “ceramide elevation (in words)” value [8]?
**A.** stimulates ceramide elevation

**Q.** Which “resistance of OVCAR-3 to the drug (in words)” value [9] does the source give for `COc1cccc2c1C(=O)c1c(O)c3c(c(O)c1C2=O)C[C@@](O)(C(=O)CO)C[C@@H]3O[C@H]1C[C@H](N)[C@H](O)[C@H](C)O1` [adriamycin, 5,12-Naphthacenedione, (8s-cis)-10-[(3-amino-2,3,6-trideoxy-a-L-lyxo-hexopyranosyl)oxy]-7,8,9,10-tetrahydro-6,8,11-trihydroxy-8-(hydroxyacetyl)-1-methoxy-hydrochloride] here?
**A.** resistant

**Q.** And the “cell death, adriamycin in the presence of tamoxifen” value ([10]; 5 μM adriamycin + 5.0 μM tamoxifen, 72 h, FIG. 15A)?
**A.** 60%

**Q.** And the cytotoxicity at 5 µM ([10]; Homo sapiens, 72 h, read-out: cell death, adriamycin alone (maximal cytotoxic effect))?
**A.** 28%

**Q.** And the “effect of the substance alone on cell survival (in words)” value ([10]; MCF-7-AdrR, alone)?
**A.** minor effect; also recorded: largely without influence

**Q.** What about the inhibition at 2.5 µM [11] of the same compound?
**A.** 17%

**Q.** And the elimination half-life ([7]; in vivo, iv)?
**A.** about 30 hr

**Q.** And the “excreted into the urine” value ([7]; in vivo)?
**A.** a few percent

**Q.** And the “absorption (in words)” value ([7]; oral or unspecified)?
**A.** absorbed poorly

**Q.** Which “activity against certain animal tumors relative to L-isomer (in words)” value [12] does the source give for `N[C@H](Cc1ccc(N(CCCl)CCCl)cc1)C(=O)O` [medphalan] here?
**A.** less active

**Q.** With `CC[C@]1(O)C[C@@H]2CN(CCc3c([nH]c4ccccc34)[C@@](C(=O)OC)(c3cc4c(cc3OC)N(C)[C@H]3[C@@](O)(C(=O)OC)[C@H](OC(C)=O)[C@]5(CC)C=CCN6CC[C@]43[C@@H]65)C2)C1` [vinblastine] as the compound, how does the significant improvement [13] read?
**A.** 50 to 90 % of cases

**Q.** And the “half-life of disappearance from plasma, first” value ([7]; in vivo, iv)?
**A.** approximately 1 hours

**Q.** What about the “half-life of disappearance from plasma, second” value ([7]; in vivo, iv) of the same compound?
**A.** ~20 h

**Q.** What about the Cmax ([7]; in vivo) of the same compound?
**A.** ~400 µM

**Q.** And the “distribution in blood cells (in words)” value ([7]; in vivo)?
**A.** extensively concentrated in platelets

**Q.** And the “plasma protein binding (in words)” value ([7]; in vivo)?
**A.** bind to plasma proteins

**Q.** What about the “tolerability / toxicity (in words)” value [14] of the same compound?
**A.** painful irritation and ulceration

Reference: patent publication US5885786A, “Methods for screening of substances for inhibition of multidrug resistance” (priority 1996, dated 1999)
